# What was measured:
# Type in all cases: in vivo
# [1] = tested on: Alopecurus myosuroides (ALOMY); test: Pre-emergence herbicidal activity, glasshouse pot test; settings: Alopecurus myosuroides, 312 h; Rate 250 g/ha; pre-emergence spray; evaluated after 13 days; read-out: Pre-emergence activity ALOMY (100=total damage to plant; 0=no damage to plant)
# How it was run: (§1)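 Seeds sown in standard soil in pots were sprayed 1 day after sowing (pre-emergence) or after 8 days' cultivation (post-emergence) with aqueous spray from acetone/water (50:50) formulation containing 0.5% Tween 20. Plants grew at 24/16° C day/night, 14 h light, 65% humidity, watered twice daily. Damage scored after 13 days, 0–100.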
# Avena fatua (AVEFA) [2] = test: as above; settings: Avena fatua, 312 h; Rate 250 g/ha; pre-emergence spray; evaluated after 13 days; read-out: Pre-emergence activity AVEFA (100=total damage to plant; 0=no damage to plant)
# How it was run: as §1
# [3] = tested on: Echinochloa crus-galli (ECHCG); test: as above; settings: Echinochloa crus-galli, 312 h; Rate 250 g/ha; pre-emergence spray; evaluated after 13 days; read-out: Pre-emergence activity ECHCG (100=total damage to plant; 0=no damage to plant)
# How it was run: as §1
# Lolium perenne (LOLPE) [4] = test: as above; settings: Lolium perenne, 312 h; Rate 250 g/ha; pre-emergence spray; evaluated after 13 days; read-out: Pre-emergence activity LOLPE (100=total damage to plant; 0=no damage to plant)
# How it was run: as §1
# [5] = tested on: Alopecurus myosuroides (ALOMY); test: Post-emergence herbicidal activity, glasshouse pot test; settings: Alopecurus myosuroides, 312 h, rate 250 g/ha, evaluated after 13 days, glasshouse, read-out: Post-emergence activity ALOMY (100=total damage to plant; 0=no damage to plant)
# How it was run: as §1
# Avena fatua (AVEFA) [6] = test: as above; settings: Avena fatua, 312 h, rate 250 g/ha, evaluated after 13 days, glasshouse, read-out: Post-emergence activity AVEFA (100=total damage to plant; 0=no damage to plant)
# How it was run: as §1
# [7] = tested on: Echinochloa crus-galli (ECHCG); test: as above; settings: Echinochloa crus-galli, 312 h, rate 250 g/ha, evaluated after 13 days, glasshouse, read-out: Post-emergence activity ECHCG (100=total damage to plant; 0=no damage to plant)
# How it was run: as §1
# Lolium perenne (LOLPE) [8] = test: as above; settings: Lolium perenne, 312 h, rate 250 g/ha, evaluated after 13 days, glasshouse, read-out: Post-emergence activity LOLPE (100=total damage to plant; 0=no damage to plant)
# How it was run: as §1
Compound,pest or weed control at 250 g/ha [1] [%],pest or weed control at 250 g/ha (Avena fatua (AVEFA) [2]) [%],pest or weed control at 250 g/ha [3] [%],pest or weed control at 250 g/ha (Lolium perenne (LOLPE) [4]) [%],pest or weed control at 250 g/ha [5] [%],pest or weed control at 250 g/ha (Avena fatua (AVEFA) [6]) [%],pest or weed control at 250 g/ha [7] [%],pest or weed control at 250 g/ha (Lolium perenne (LOLPE) [8]) [%]
CCc1ccc(Oc2ccc(Br)cc2F)cc1C1=C(O)CC(C)(C)CC1=O [Example A-49],90,40,100,100,90,70,100,90
CCc1ccc(Oc2ccc(Cl)cc2)cc1C1=C(O)C(C)(C)CCC1=O [Example A-50],0,0,100,70,0,0,50,60
CCc1ccc(Oc2ccc(Cl)c(F)c2)cc1C1=C(O)C(C)(C)CCC1=O [Example A-52],40,20,60,70,30,40,90,50
CCc1ccc(Oc2cccc(C(F)(F)F)n2)cc1C1=C(O)C(C)(C)OC(C)(C)C1=O [Example A-53],0,0,20,40,0,0,80,30
CCc1ccc(Oc2ncc(Cl)cc2F)cc1C1=C(O)C(C)(C)OC(C)(C)C1=O [Example A-54],100,90,100,100,100,100,100,100
CCc1ccc(Oc2cnc3cc(Cl)ccc3n2)cc1C1=C(O)C(C)(C)OC(C)(C)C1=O [Example A-55],80,90,100,100,100,100,100,100
CCc1ccc(Oc2ccc3ccccc3c2)cc1C1=C(O)C(C)(C)OC(C)(C)C1=O [Example A-56],80,30,80,100,100,0,100,100
CCc1ccc(Oc2cccc(F)c2)cc1C1=C(O)C(C)(C)OC(C)(C)C1=O [Example A-58],0,0,70,0,0,0,80,0
CCc1ccc(Oc2nc(F)c(F)c(C)c2F)cc1C1=C(O)C(C)(C)OC(C)(C)C1=O [Example A-59],80,70,100,100,80,70,100,70
CCc1ccc(Oc2nc(F)c(Cl)c(Cl)c2Cl)cc1C1=C(O)C(C)(C)OC(C)(C)C1=O [Example A-60],0,0,50,40,0,0,0,0
CCc1ccc(Oc2ncc(C(F)(F)F)cc2F)cc1C1=C(O)C(C)(C)OC(C)(C)C1=O [Example A-62],100,100,100,100,100,100,100,100

# — patent US8865623B2, “Herbicidally active cyclic diones and derivatives thereof, processes for their preparation, compositions, and method of controlling weeds” (Syngenta Limited, priority 2009, dated 2014)
